Test results: patent US20070021509A1, “Phosphate transport inhibitors” (priority 2001, published 2007)

Assays:
[1] = tested on: glucose transport (rabbit intestinal BBMV); assay: In vitro BBMV assay, glucose transport inhibiting activity; format: biochemical; conditions: Table 14
Procedure: In the remaining wells, used for compound containing reactions, are placed MAX Control Buffer. The Hot Stock Plate was stored at room temperature. To each well of an appropriate 96-well filter plate was added approximately 200 μL Stop Buffer to pre-wet the filters for at least 15 minutes prior to assay. The “Compound Plate” was set-up by loading appropriate wells of a 96-well, polypropylene, V-bottom plate with compound solutions. This could be for testing inhibition at a single “screening” concentration, or to measure the potency of compounds by dose-response analysis at the appropriate concentrations. A “BBMV Plate” was set up by loading a 96-well, polypropylene, V-bottom plate with BBMVs at 0.5-2.0 mg/mL (prepared as described above). The BBMV Plate was kept on ice until just prior to the assay. The reaction was initiated by aspiration of the hot uptake buffers (19 uL), from the Hot Stock Plate, and the compound solutions (2 uL), from the Compound Plate, dispensing into an empty 96-well V-bottom plate (Assay Plate), then immediately aspirating the BBMVs (19 μL), from the BBMV Plate and dispensing into the same Assay Plate. The addition of the BBMVs to the assay plate marked the reaction start time. After 15 minutes, the reaction was quenched by addition of 200 μL of STOP buffer from a reservoir. The Stop Buffer was aspirated by vacuum from the wells, through the filters, of the pre-soaked filter plate using a filter plate manifold. The quenched reactions were aspirated and transferred to the filter plate under vacuum. The filters were washed 2 times with 200 μL STOP buffer under vacuum. The filter plate was removed, dried, and the bottom of the filter plate was sealed. To each well of the filter plate was added 50 μL of scintillant (Microscint-20). A top seal was then applied to the filter plate. The plate was incubated for approximately 20 minutes before reading for ^33P CPM on a scintillation counter (i.e., TopCount-Packard Instruments). Percent inhibition was calculated by comparing the CPM values from compound containing wells to the MAX and MIN controls on the same plate using the following formula. 1−((CPM−MIN)/(MAX−MIN)) IC50 values were calculated from non-linear regression analysis within an appropriate software package (i.e., Prism GraphPad).
The phosphate transport inhibitors indicated in Table 14 were tested in both an in vitro and an ex vivo assay to determine their activity. The in vitro assay is identical to the assay described in Example 66, with the exception that the glucose transport inhibiting activity of the compounds was also measured. Results are reported as the IC50 value for the various types of inhibition. A preferred compound will have high phosphate transport inhibiting activity, but little or no glucose transport inhibiting activity.

[2] = tested on: sodium-dependent phosphate uptake into isolated rabbit intestinal rings; assay: Ex vivo 33P uptake into isolated rabbit intestinal rings; format: cell-based; set-up: concentration or dose not given beside the values; conditions: Table 14, 15-minute incubation
Procedure: For the ex vivo assay, ^33P uptake into isolated rabbit intestinal rings was measured using a modification of the method described by Crane and Mandelstam [Robert K. Crane and Paul Mandelstam “The active transport of sugars by various preparations of hamster intestine” Biochim. Biophys. Acta 45: 460-476, 1960; the contents of which are incorporated herein by reference]. Male New Zealand rabbits 2-3 kg in weight were aeuthinized by an i.v. injection of Fatal Pluse®. A midline laparotomy was performed and the duodenum from the pyloric junction to the ligament of Trietz isolated and excised. Segments of bowel were everted, cut into 2-4 mm ring-like pieces and placed into a modified Hepes-Buffered Ringer's solution in which Na^+ had been iso-osmotically replaced with N-methyl-D-glucamine. To measure phosphate uptake, six rings were incubated in a 50 ml conical tube containing a 10 ml volume of Ringer's solution, with or without Na^+, bubbled with 100% O2 and maintained at 37° C. 0.5 uCi/ml ^33P was then incubated with the rings for a 15-minute period, the tissue harvested, rinsed, blotted dry and weighed. Tissues were then solublized by digesting them in a 5 ml volume of Solvable® tissue solubilizer overnight at 50° C. and ^33P levels determined by scintillation counting. Sodium-dependent uptake of ^33P was calculated by determining the difference in uptake between rings incubated in the presence and absence of Na^+ in the Hepes-Buffered Ringer's solution. Results are reported as the percentage inhibition of phosphate and glucose uptake, respectively.

| SMILES | IC50 [1] [µM] | % Phosphate Transport Inhibition [2] [%] |
| --- | --- | --- |
| COc1ccccc1CNC(=O)c1cc(Br)ccc1NS(=O)(=O)c1ccc(OC(F)(F)F)cc1 [Example 70, 5-Bromo-N-(2-methoxy-benzyl)-2-(4-trifluoromethoxy-benzenesulfonylamino)-benzamide] | > 100 | 48 |
| O=C(NCc1ccc(F)cc1)c1cc(Br)ccc1NS(=O)(=O)c1ccc(OC(F)(F)F)cc1 [Example 71, 5-Bromo-N-(4-fluoro-benzyl)-2-(4-trifluoromethoxy-benzenesulfonylamino)-benzamide] | > 100 | 53 |
| O=C(NCc1ccc(OC(F)(F)F)cc1O)c1cc(Br)ccc1NS(=O)(=O)c1ccc(OC(F)(F)F)cc1 [Example 75, 5-Bromo-N-(2-hydroxy-4-trifluoromethoxy-benzyl)-2-(4-trifluoromethoxy-benzenesulfonylamino)-benzamide] | 80 | 56 |
| COc1ccc(F)cc1CNC(=O)c1cc(Br)ccc1NS(=O)(=O)c1ccc(OC(F)(F)F)cc1 [Example 78, 5-Bromo-N-(5-fluoro-2-methoxy-benzyl)-2-(4-trifluoromethoxy-benzenesulfonylamino)-benzamide] | 100 | 45 |
| O=C(Nc1cccc(C(F)(F)F)c1)Nc1cccc(C(F)(F)F)c1 [Example 82, 1,3Bis(3-Trifluoromethylphenyl)urea] | 54 | 25 |
| O=C(Nc1cc(C(F)(F)F)cc(C(F)(F)F)c1)NC1CCCCC1 [Example 83, 1-Cyclohexyl-3-(3,5-Bistrifluoromethyl-phenyl)-urea] | 82 | 76 |
| Cn1nc(C(C)(C)C)cc1C(=O)Nc1ccc(C(F)(F)F)cc1 [Example 84, 5-tert-Butyl-2-methyl-2H-pyrazole-3-carboxylic acid (4-trifluoromethyl-phenyl)-amide] | 99 | 41 |
| O=C(Nc1cccc(C(F)(F)F)c1)Nc1cc(Cl)ccc1Cl [Example 85, 1-(2,5-Dichloro-phenyl)-3-(3-trifluoromethyl-phenyl)-urea] | > 100 | 58 |
| O=C(Nc1cccc(C(F)(F)F)c1)Nc1ccc(F)c([N+](=O)[O-])c1 [Example 86, 1-(4-Fluoro-3-nitro-phenyl)-3-(3-trifluoromethyl-phenyl)-urea] | 34 | 30 |
| Cl.N=C(Nc1ccc(Br)c(C(F)(F)F)c1)Nc1ccc(Br)c(C(F)(F)F)c1 [Example 87, N,N′-Bis-(4-bromo-3-trifluoromethyl-phenyl)-guanidine Hydrochloride] | 94 | 71 |
| Cl.N=C(Nc1cc(C(F)(F)F)cc(C(F)(F)F)c1)Nc1cc(C(F)(F)F)cc(C(F)(F)F)c1 [Example 88, N,N′-Bis-(3,5-bis-trifluoromethyl-phenyl)-guanidine Hydrochloride] | 63 | 60 |
| Cl.N=C(Nc1ccc(Cl)c(C(F)(F)F)c1)Nc1ccc(Cl)c(C(F)(F)F)c1 [Example 89, N,N′-Bis-(4-chloro-3-trifluoromethyl-phenyl)-guanidine Hydrochloride] | 88 | 44 |
| Cl.N=C(Nc1ccc(C(F)(F)F)c(C(F)(F)F)c1)Nc1ccc(C(F)(F)F)c(C(F)(F)F)c1 [Example 90, N,N′-Bis-(3,4-bis-trifluoromethyl-phenyl)-guanidine Hydrochloride] | > 100 | 93 |
